Assay results taken from patent US7193127B1, “Codeinone reductase from alkaloid poppy” (priority 1999, dated 2007).
“Also recorded” adds a separate entry of the source. Like-named read-outs stand apart in the source and are kept apart here.

Assays:
[1] = system: codeinone reductase isoforms; format: biochemical, Papaver somniferum; conditions: for serves as substrate in the reductive reaction: NADPH as cofactor, physiologically forward reaction
Experimental: The two other potential substrates for reduction, the 1,2-dehydroreticulinium ion and salutaridine (FIG. 1), or for the physiologically reverse reaction, salutaridinol and (R)-reticuline, were tested as substrates; with the codeinone reductase isoforms.
In order to test for a functional evolutionary relationship between isoflavonoid and alkaloid anabolism, codeinone reductase was analyzed for the ability to substitute for the reductase in the formation of 6-deoxychalcone in co-action with either native chalcone synthase or native stilbene synthase from Pinus sylvestris.

COR1.2 = COR1.2 (Papaver somniferum, UniProt Q9SQ69); experiment: Km determination with purified recombinant codeinone reductase isoform COR1.2
Experimental: (§1) The four codeinone reductase isoform-calmodulin-binding peptide fusion proteins were purified from E. coli lysates in one step with a calmodulin affinity column.
(§2) For all isoforms, the temperature optimum for reduction (physiologically forward reaction) was 28° C., for oxidation (physiologically reverse reaction) was 30° C., the pH optimum for reduction was 6.8 and for oxidation was 9.0.
(§3) For enzyme assays, single colonies were picked and grown in 3 ml Luria-Bertani medium containing 100 μg/ml ampicillin at 37° C. to an OD590 of 0.8. For protein purification, single colonies were picked and grown in 1 l Luria-Bertani medium containing 100 μg/ml ampicillin at 37° C. to an OD590 of 1.8. […] The bacterial pellet from a 3 ml culture was resuspended in 0.5 ml buffer and that from a one liter culture in 100 ml buffer. The cells were ruptured by sonication.

COR1.3 = COR1.3 (Papaver somniferum, UniProt Q9SQ68); experiment: Km determination with purified recombinant codeinone reductase isoform COR1.3
Experimental: as §1, §2, §3

[2] = molecular target: T1, reductase of the 6′-deoxychalcone synthase complex (Glycine max, UniProt P26690); experiment: Codeinone/codeine conversion by the reductase of the 6'-deoxychalcone synthase complex; format: biochemical, soybean; conditions: in the presence of NADPH
T1 sequence (P26690 1-315): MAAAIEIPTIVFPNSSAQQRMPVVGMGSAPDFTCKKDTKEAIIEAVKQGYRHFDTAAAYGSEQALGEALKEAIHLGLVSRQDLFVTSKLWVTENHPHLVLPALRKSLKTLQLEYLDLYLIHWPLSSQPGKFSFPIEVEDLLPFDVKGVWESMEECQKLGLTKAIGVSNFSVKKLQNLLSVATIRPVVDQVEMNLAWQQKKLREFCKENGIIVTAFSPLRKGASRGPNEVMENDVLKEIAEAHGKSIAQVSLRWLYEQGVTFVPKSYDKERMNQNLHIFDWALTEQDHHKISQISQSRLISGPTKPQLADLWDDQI

[3] = system: COc1ccc2c3c1O[C@H]1C(=O)C=C[C@H]4[C@@H](C2)N(C)CC[C@]314; experiment: cells, lysate or membranes named
Experimental: as §1, §2, §3

[4] = analogs and aldo/keto reductase family substrates, direction not given
[5] = NADP as cofactor, physiologically reverse reaction

Chain of COR1.2 (Q9SQ69 whole entry, canonical isoform): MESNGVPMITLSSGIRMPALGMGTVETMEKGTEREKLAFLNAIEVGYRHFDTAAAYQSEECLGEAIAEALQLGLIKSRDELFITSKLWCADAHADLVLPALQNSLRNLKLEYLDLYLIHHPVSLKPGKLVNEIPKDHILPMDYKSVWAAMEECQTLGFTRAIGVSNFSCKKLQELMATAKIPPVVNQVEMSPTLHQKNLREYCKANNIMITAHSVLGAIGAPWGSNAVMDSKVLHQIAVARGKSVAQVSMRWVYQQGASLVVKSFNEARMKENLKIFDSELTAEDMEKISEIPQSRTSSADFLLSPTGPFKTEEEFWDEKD
Chain of COR1.3 (Q9SQ68 whole entry, canonical isoform): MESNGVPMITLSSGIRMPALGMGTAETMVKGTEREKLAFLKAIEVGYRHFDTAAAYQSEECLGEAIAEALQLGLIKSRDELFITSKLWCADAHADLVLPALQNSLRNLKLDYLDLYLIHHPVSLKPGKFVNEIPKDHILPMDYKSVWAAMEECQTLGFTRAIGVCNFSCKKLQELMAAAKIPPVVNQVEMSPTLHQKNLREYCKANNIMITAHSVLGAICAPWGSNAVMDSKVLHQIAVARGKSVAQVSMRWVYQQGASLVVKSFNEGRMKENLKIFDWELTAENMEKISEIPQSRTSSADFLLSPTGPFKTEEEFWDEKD

COc1ccc(C[C@@H]2NCCc3cc(OC)c(O)cc32)cc1O (mixture of isomers) [(S)-norreticuline, (S) and (R)-norreticuline]
transformed by codeinone reductase (tested as substrate) [1, 4]: inactive

COc1ccc(CC2=[N+](C)CCc3cc(OC)c(O)cc32)cc1O [1,2-dehydroreticulinium ion]
serves as substrate in the reductive reaction [1]: None of these alkaloids served as substrate

O=C1C=CCCC1 [2-cyclohexene-1-one]
transformed by codeinone reductase (tested as substrate) [1, 4]: not transformed

C[C@]12CC[C@H]3[C@@H](CC=C4C[C@@H](O)CC[C@@]43C)[C@@H]1CC[C@@H]2O [5-androstene-3β,17β-diol]
transformed by codeinone reductase (tested as substrate) [1]: not transformed

C[C@]12CCC(=O)C[C@@H]1CC[C@@H]1[C@@H]2CC[C@]2(C)[C@@H](O)CC[C@@H]12 [5α-androstan-17β-ol-3-one]
transformed by codeinone reductase (tested as substrate) [1]: not transformed

CC(C)CCC[C@@H](C)[C@H]1CC[C@H]2[C@@H]3CC[C@H]4C[C@@H](O)CC[C@]4(C)[C@H]3CC[C@]12C [5α-cholestane-3β-ol]
transformed by codeinone reductase (tested as substrate) [1, 4]: not transformed

COc1ccc(C[C@H]2NCCc3cc(OC)c(O)cc32)cc1O [(R)-norreticuline]
transformed by codeinone reductase (tested as substrate) [1, 4]: inactive

COc1ccc(C[C@@H]2c3cc(O)c(OC)cc3CCN2C)cc1O [(R)-reticuline]
serves as substrate in the oxidative reaction [1, 5]: None of these alkaloids served as substrate

COc1ccc(C[C@H]2c3cc(O)c(OC)cc3CCN2C)cc1O [(S)-reticuline]
transformed by codeinone reductase (tested as substrate) [1, 4]: inactive

O=P(O)(O)OC[C@@H](O)[C@@H](O)[C@H](O)[C@@H](O)CO [D-Sorbitol-6-phosphate]
transformed by codeinone reductase (tested as substrate) [1, 4]: not transformed

O=C[C@H](O)[C@@H](O)[C@H](O)CO [D-xylose]
transformed by codeinone reductase (tested as substrate) [1, 4]: not transformed

NC(=O)C1=CN([C@@H]2O[C@H](COP(=O)(O)OP(=O)(O)OC[C@H]3O[C@@H](n4cnc5c(N)ncnc54)[C@H](O)[C@@H]3O)[C@@H](O)[C@H]2O)C=CC1 [NADH]
ability to substitute for NADPH as cofactor ([1]; any of the isoforms): could not substitute for NADPH

NC(=O)C1=CN([C@@H]2O[C@H](COP(=O)(O)OP(=O)(O)OC[C@H]3O[C@@H](n4cnc5c(N)ncnc54)[C@H](OP(=O)(O)O)[C@@H]3O)[C@@H](O)[C@H]2O)C=CC1 [NADPH]
Km (COR1.2): 220 µM

NC(=O)c1ccc[n+]([C@@H]2O[C@H](COP(=O)([O-])OP(=O)(O)OC[C@H]3O[C@@H](n4cnc5c(N)ncnc54)[C@H](OP(=O)(O)O)[C@@H]3O)[C@@H](O)[C@H]2O)c1 [NADP]
Km (COR1.2): 58 µM | Km (COR1.3): 45 µM

COc1ccc2c3c1O[C@H]1C(=O)C=C[C@H]4[C@@H](C2)N(C)CC[C@]314 [codeinone]
reduction by the reductase of the 6′-deoxychalcone synthase complex [2]: could neither reduce

O=C1CCCCC1 [cyclohexanone]
transformed by codeinone reductase (tested as substrate) [1, 4]: not transformed

COc1ccc2c3c1O[C@H]1[C@@H](O)CC[C@H]4[C@@H](C2)N(C)CC[C@@]341 [dihydrocodeine]
serves as substrate in the oxidative reaction [1, 5]: functions

COc1ccc2c3c1O[C@H]1C(=O)CC[C@H]4[C@@H](C2)N(C)CC[C@]314 [hydrocodone]
serves as substrate in the reductive reaction [1]: functions

CN1CC[C@]23c4c5ccc(O)c4O[C@H]2[C@@H](O)C=C[C@H]3[C@H]1C5 [morphine]
serves as substrate in the oxidative reaction [1]: functions

CN1CC[C@]23c4c5ccc(O)c4O[C@H]2C(=O)C=C[C@H]3[C@H]1C5 [morphinone]
serves as substrate in the reductive reaction [1]: functions; also recorded: able to reduce

COc1ccc2c3c1O[C@H]1[C@@H](O)C=C[C@H]4[C@@H](C2)NCC[C@@]341 [norcodeine]
transformed by codeinone reductase (tested as substrate) [1]: inactive

CCCCC[C@H](O)/C=C/[C@H]1C(=O)C[C@H](O)[C@@H]1CCCCCCC(=O)O [prostaglandin D1]
transformed by codeinone reductase (tested as substrate) [1, 4]: not transformed

COC1=C[C@]23CCN(C)[C@H](Cc4ccc(OC)c(O)c42)C3=CC1=O [salutaridine]
serves as substrate in the reductive reaction [1]: None of these alkaloids served as substrate

COC1=C[C@]23CCN(C)[C@H](Cc4ccc(OC)c(O)c42)C3=C[C@@H]1O [salutaridinol]
serves as substrate in the oxidative reaction [1, 5]: None of these alkaloids served as substrate

COR1.2 (Papaver somniferum)
Km [3]: 62 µM

COR1.3 (Papaver somniferum)
Km [3]: 48 µM
